Results published in patent publication US20190152992A1, “BENZODIOXANE DERIVATIVES AND THEIR PHARMACEUTICAL USE” (Orion Corporation, priority 2016, published 2019).
Where a name gives a salt, the structure may show the parent alone.

Key:
[1] = target: T1, human alpha2C receptors (Homo sapiens, UniProt P18825); test: Determination of alpha2C antagonistic activity in vitro (FLIPR calcium assay); settings: for Kb: Alpha 2C Adrenaline Kb, Kb calculated from IC50 with the Cheng-Prusoff equation, adrenaline as agonist, CHO cells, human alpha2C
T1 sequence (P18825 1-462): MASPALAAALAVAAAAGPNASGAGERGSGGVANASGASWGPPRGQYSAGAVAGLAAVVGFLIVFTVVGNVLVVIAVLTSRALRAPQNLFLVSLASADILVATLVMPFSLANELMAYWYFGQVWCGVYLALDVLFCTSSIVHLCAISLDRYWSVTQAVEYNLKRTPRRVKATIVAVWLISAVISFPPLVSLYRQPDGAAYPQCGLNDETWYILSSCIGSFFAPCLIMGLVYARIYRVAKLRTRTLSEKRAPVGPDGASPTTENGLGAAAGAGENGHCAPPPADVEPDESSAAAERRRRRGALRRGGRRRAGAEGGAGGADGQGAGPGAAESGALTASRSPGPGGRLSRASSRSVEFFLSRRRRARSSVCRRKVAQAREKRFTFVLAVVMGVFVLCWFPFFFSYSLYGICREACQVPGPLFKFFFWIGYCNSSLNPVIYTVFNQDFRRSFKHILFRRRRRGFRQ

[2] = target: T2, human alpha2A receptors (Homo sapiens, UniProt P08913); test: cell-based
T2 sequence (P08913 1-465): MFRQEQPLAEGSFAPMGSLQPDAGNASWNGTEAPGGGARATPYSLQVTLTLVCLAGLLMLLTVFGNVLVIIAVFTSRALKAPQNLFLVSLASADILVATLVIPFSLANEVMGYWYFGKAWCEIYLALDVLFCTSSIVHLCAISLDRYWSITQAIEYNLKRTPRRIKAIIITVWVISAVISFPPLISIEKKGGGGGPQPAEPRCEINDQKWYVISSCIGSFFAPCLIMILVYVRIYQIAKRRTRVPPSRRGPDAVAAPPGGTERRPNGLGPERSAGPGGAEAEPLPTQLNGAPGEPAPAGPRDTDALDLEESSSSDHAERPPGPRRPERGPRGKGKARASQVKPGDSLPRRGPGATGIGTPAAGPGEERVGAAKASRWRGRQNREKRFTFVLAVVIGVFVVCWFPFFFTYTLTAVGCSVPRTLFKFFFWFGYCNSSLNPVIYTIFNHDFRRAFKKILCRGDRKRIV

Q: `CC(=O)N1CCC(N2C(=O)C(=O)N([C@H]3CCCN(C[C@H]4COc5ccccc5O4)C3)C2=O)CC1` [example 139, 1-(1-Acetylpiperidin-4-yl)-3-((S)-1-(((S)-2,3-dihydrobenzo[b][1,4]-dioxin-2-yl)methyl)piperidin-3-yl)imidazolidine-2,4,5-trione] was tested. Which IC50 [1] did it give?
A: 0.113 nM

Q: And the Kb [1]?
A: 0.012 nM

Q: And the IC50 [2]?
A: 9.83 µM

Q: And the Kb [2]?
A: 441 nM

Q: With `O=C1N(c2ccccc2)CCN1[C@H]1CCCN(C[C@H]2COc3ccccc3O2)C1` [example 48, 1-((S)-1-(((S)-2,3-Dihydrobenzo[b][1,4]dioxin-2-yl)methyl)piperidin-3-yl)-3-phenylimidazolidin-2-one] as the compound, how does the IC50 [1] read?
A: 29.9 nM

Q: What about the Kb [1] of the same compound?
A: 3.01 nM

Q: What about the IC50 [2] of the same compound?
A: > 10 µM

Q: And the Kb [2]?
A: > 449 nM

Q: `O=c1[nH]c2ccc(F)cc2n1[C@H]1CCCN(C[C@H]2COc3ccccc3O2)C1` [example 86, 1-((S)-1-(((S)-2,3-Dihydrobenzo[b][1,4]dioxin-2-yl)methyl)piperidin-3-yl)-6-fluoro-1H-benzo[d]imidazol-2(3H)-one] was tested. Which IC50 [1] did it give?
A: < 0.1 nM

Q: What about the Kb [1] of the same compound?
A: < 0.01 nM

Q: What about the IC50 [2] of the same compound?
A: > 10 µM

Q: What about the Kb [2] of the same compound?
A: > 449 nM

Q: What does the source list for `COc1ccc2nc(C)n([C@H]3CCCN(C[C@H]4COc5ccccc5O4)C3)c2n1` [example 155, 3-((S)-1-(((S)-2,3-Dihydrobenzo[b][1,4]dioxin-2-yl)methyl)piperidin-3-yl)-5-methoxy-2-methyl-3H-imidazo[4,5-b]pyridine]?
A: IC50 [1]: 56 nM; Kb [1]: 5.64 nM; IC50 [2]: > 10 µM; Kb [2]: > 449 nM

Q: `O=C1C(c2ccccc2)CCN1[C@H]1CCCN(C[C@H]2COc3ccccc3O2)C1` (stereo partly drawn) [example 31, 1-((S)-1-(((S)-2,3-Dihydrobenzo[b][1,4]dioxin-2-yl)methyl)piperidin-3-yl)-3-phenylpyrrolidin-2-one] was tested. Which IC50 [1] did it give?
A: > 10000 nM

Q: What about the Kb [1] of the same compound?
A: > 1010 nM

Q: And the IC50 [2]?
A: > 10 µM

Q: What about the Kb [2] of the same compound?
A: > 449 nM

Q: `C[C@@H](c1ccccc1)N1C(=O)C(=O)N([C@H]2CCCN(C[C@H]3COc4ccccc4O3)C2)C1=O` [compound 133, 1-((S)-1-(((S)-2,3-Dihydrobenzo[b][1,4]dioxin-2-yl)methyl)-piperidin-3-yl)-3-((S)-1-phenylethyl)imidazolidine-2,4,5-trione] was tested. Which IC50 [1] did it give?
A: < 0.01 nM

Q: And the Kb [1]?
A: < 0.001 nM

Q: And the IC50 [2]?
A: 0.807 µM

Q: What about the Kb [2] of the same compound?
A: 36 nM

Q: What does the source list for `O=C1C(=O)N([C@H]2CCCN(C[C@H]3COc4ccccc4O3)C2)C(=O)N1Cc1ccccc1` [example 131, 1-Benzyl-3-((S)-1-(((S)-2,3-dihydrobenzo[b][1,4]dioxin-2-yl)methyl)piperidin-3-yl)imidazolidine-2,4,5-trione]?
A: IC50 [1]: 1.64 nM; Kb [1]: 0.165 nM; IC50 [2]: 5.7 µM; Kb [2]: 256 nM

Q: How did the IC50 [1] turn out when `O=C1CN(C2CC(F)(F)C2)C(=O)N1[C@H]1CCCN(C[C@H]2COc3ccccc3O2)C1` [example 121, 1-(3,3-Difluorocyclobutyl)-3-((S)-1-(((S)-2,3-dihydrobenzo[b][1,4]dioxin-2-yl)methyl)piperidin-3-yl)imidazolidine-2,4-dione] was run?
A: 26.4 nM

Q: And the Kb [1]?
A: 2.66 nM

Q: What about the IC50 [2] of the same compound?
A: > 10 µM

Q: What about the Kb [2] of the same compound?
A: > 449 nM

Q: Which results are given for `Cc1nc2ccc(Cl)cc2n1[C@H]1CCCN(C[C@H]2COc3ccccc3O2)C1` [example 90, 6-Chloro-1-((S)-1-(((S)-2,3-dihydrobenzo[b][1,4]dioxin-2-yl)methyl)piperidin-3-yl)-2-methyl-1H-benzo[d]imidazole]?
A: IC50 [1]: < 0.1 nM; Kb [1]: < 0.01 nM; IC50 [2]: 11.1 µM; Kb [2]: 498 nM

Q: For `CC(C)N1C(=O)N([C@H]2CCCN(C[C@H]3COc4ccccc4O3)C2)C[C@@H]1c1ccccc1` [example 7, (S)-1-((S)-1-(((S)-2,3-Dihydrobenzo[b][1,4]dioxin-2-yl)methyl)piperidin-3-yl)-3-isopropyl-4-phenylimidazolidin-2-one], which IC50 [1] is on record?
A: < 0.1 nM

Q: What about the Kb [1] of the same compound?
A: < 0.01 nM

Q: What about the IC50 [2] of the same compound?
A: 1.73 µM

Q: What about the Kb [2] of the same compound?
A: 78 nM

Q: `CC(C)CN1C(=O)C(=O)N([C@H]2CCCN(C[C@H]3COc4ccccc4O3)C2)C1=O` [example 141, 1-((S)-1-(((S)-2,3-Dihydrobenzo[b][1,4]dioxin-2-yl)methyl)piperidin-3-yl)-3-isobutylimidazolidine-2,4,5-trione] was tested. Which IC50 [1] did it give?
A: 0.446 nM

Q: What about the Kb [1] of the same compound?
A: 0.045 nM

Q: What about the IC50 [2] of the same compound?
A: > 10 µM

Q: What about the Kb [2] of the same compound?
A: > 449 nM

Q: Which IC50 [1] does the source give for `O=C1CN(C2COC2)C(=O)N1[C@H]1CCCN(C[C@H]2COc3ccccc3O2)C1` [example 120, 3-((S)-1-(((S)-2,3-Dihydrobenzo[b][1,4]dioxin-2-yl)methyl)-piperidin-3-yl)-1-(oxetan-3-yl)imidazolidine-2,4-dione] here?
A: 132 nM

Q: And the Kb [1]?
A: 13.3 nM

Q: And the IC50 [2]?
A: > 10 µM

Q: What about the Kb [2] of the same compound?
A: > 449 nM

Q: What does the source list for `O=C1OC(c2ccc(F)cc2)CN1[C@H]1CCCN(C[C@H]2COc3ccccc3O2)C1` (stereo partly drawn) [example 21, 3-((S)-1-(((S)-2,3-Dihydrobenzo[b][1,4]dioxin-2-yl)methyl)piperidin-3-yl)-5-(4-fluorophenyl)oxazolidin-2-one]?
A: IC50 [1]: 1.9 nM; Kb [1]: 0.191 nM; IC50 [2]: 1.4 µM; Kb [2]: 63 nM

Q: `CC1=CC(=O)N([C@H]2CCCN(C[C@H]3COc4ccccc4O3)C2)C1` [example 40, 1-((S)-1-(((S)-2,3-Dihydrobenzo[b][1,4]dioxin-2-yl)methyl)piperidin-3-yl)-4-methyl-1H-pyrrol-2(5H)-one] was tested. Which IC50 [1] did it give?
A: 2.32 nM

Q: And the Kb [1]?
A: 0.232 nM

Q: And the IC50 [2]?
A: > 10 µM

Q: And the Kb [2]?
A: > 449 nM

Q: Which IC50 [1] does the source give for `Cc1nc2cnccc2n1[C@H]1CCCN(C[C@H]2COc3ccccc3O2)C1` [example 158, 1-((S)-1-(((S)-2,3-Dihydrobenzo[b][1,4]dioxin-2-yl)methyl)piperidin-3-yl)-2-methyl-1H-imidazo[4,5-c]pyridine] here?
A: 3.43 nM

Q: What about the Kb [1] of the same compound?
A: 0.346 nM

Q: And the IC50 [2]?
A: > 10 µM

Q: And the Kb [2]?
A: > 449 nM

Q: For `CCN1CCN([C@H]2CCCN(C[C@H]3COc4ccccc4O3)C2)C1=O` [example 16, 1-((S)-1-(((S)-2,3-Dihydrobenzo[b][1,4]dioxin-2-yl)methyl)piperidin-3-yl)-3-ethylimidazolidin-2-one], which IC50 [1] is on record?
A: 0.57 nM

Q: And the Kb [1]?
A: 0.06 nM

Q: And the IC50 [2]?
A: > 10 µM

Q: What about the Kb [2] of the same compound?
A: > 449 nM

Q: How did the IC50 [1] turn out when `COc1cccc2c1CN([C@H]1CCCN(C[C@H]3COc4ccccc4O3)C1)C2=O` [example 55, 2-((S)-1-(((S)-2,3-Dihydrobenzo[b][1,4]dioxin-2-yl)methyl)piperidin-3-yl)-4-methoxyisoindolin-1-one] was run?
A: 0.029 nM

Q: What about the Kb [1] of the same compound?
A: 0.003 nM

Q: What about the IC50 [2] of the same compound?
A: > 10 µM

Q: What about the Kb [2] of the same compound?
A: > 449 nM

Q: What does the source list for `CN(C)Cc1nc2ccc(Cl)cc2n1[C@H]1CCCN(C[C@H]2COc3ccccc3O2)C1` [example 152, 1-(6-Chloro-1-((S)-1-(((S)-2,3-dihydrobenzo[b][1,4]dioxin-2-yl)methyl)piperidin-3-yl)-1H-benzo[d]imidazol-2-yl)-N,N-dimethylmethanamine]?
A: IC50 [1]: 69.8 nM; Kb [1]: 7.03 nM; IC50 [2]: 0.288 µM; Kb [2]: 13 nM

Q: For `O=C1C2CCCC2C(=O)N1[C@H]1CCCN(C[C@H]2COc3ccccc3O2)C1` (stereo partly drawn) [example 92, 2-((S)-1-(((S)-2,3-Dihydrobenzo[b][1,4]dioxin-2-yl)methyl)piperidin-3-yl)tetrahydrocyclopenta[c]pyrrole-1,3(2H,3aH)-dione hydrochloride], which IC50 [1] is on record?
A: 0.15 nM

Q: What about the Kb [1] of the same compound?
A: 0.02 nM

Q: What about the IC50 [2] of the same compound?
A: > 10 µM

Q: What about the Kb [2] of the same compound?
A: > 449 nM

Q: With `CN1CCN([C@H]2CCCN(C[C@H]3COc4ccccc4O3)C2)C1=O` [example 101, 1-((S)-1-(((S)-2,3-Dihydrobenzo[b][1,4]dioxin-2-yl)methyl)piperidin-3-yl)-3-methylimidazolidin-2-one] as the compound, how does the IC50 [1] read?
A: 0.78 nM

Q: And the Kb [1]?
A: 0.08 nM

Q: And the IC50 [2]?
A: > 10 µM

Q: And the Kb [2]?
A: > 449 nM

Q: For `O=S1(=O)Nc2ccccc2N1[C@H]1CCCN(C[C@H]2COc3ccccc3O2)C1` [example 146, 1-((S)-1-(((S)-2,3-Dihydrobenzo[b][1,4]dioxin-2-yl)methyl)piperidin-3-yl)-1,3-dihydrobenzo[c][1,2,5]thiadiazole 2,2-dioxide], which IC50 [1] is on record?
A: 1050 nM

Q: What about the Kb [1] of the same compound?
A: 105 nM

Q: And the IC50 [2]?
A: 7.19 µM

Q: And the Kb [2]?
A: 323 nM

Q: Which IC50 [1] does the source give for `Clc1ccc2c(c1)ncn2[C@H]1CCCN(C[C@H]2COc3ccccc3O2)C1` [example 91, 5-Chloro-1-((S)-1-(((S)-2,3-dihydrobenzo[b][1,4]dioxin-2-yl)methyl)piperidin-3-yl)-1H-benzo[d]imidazole] here?
A: < 0.1 nM

Q: And the Kb [1]?
A: < 0.01 nM

Q: What about the IC50 [2] of the same compound?
A: > 10 µM

Q: What about the Kb [2] of the same compound?
A: > 449 nM

Q: `C[C@H]1C(=O)N([C@H]2CCCN(C[C@H]3COc4ccccc4O3)C2)C(=O)[C@@H]1C` [example 4, (3R,4R)-1-((S)-1-(((S)-2,3-Dihydrobenzo[b][1,4]dioxin-2-yl)methyl)piperidin-3-yl)-3,4-dimethylpyrrolidine-2,5-dione] was tested. Which IC50 [1] did it give?
A: 1.77 nM

Q: And the Kb [1]?
A: 0.18 nM

Q: What about the IC50 [2] of the same compound?
A: > 10 µM

Q: What about the Kb [2] of the same compound?
A: > 449 nM
